Laboratory results as given in the NIST ThermoML archive (doi:10.1021/je060271a).
Numbers after ± are expanded uncertainties.

Conditions: 283.15 K, Liquid, Vibrating tube method

Measured: mass density

CCCCC(=O)OCC(COC(=O)CCCC)(COC(=O)CCCC)COC(=O)CCCC [pentaerythritol tetrapentanoate]
1034.6 ± 1.2 kg/m3: 12815 kPa | 12974 kPa | 13031 kPa | 13142 kPa | 13174 kPa
1034.5 ± 1.2 kg/m3: 12659 kPa | 12695 kPa | 12841 kPa | 12867 kPa | 12897 kPa | 12922 kPa | 12949 kPa | 13005 kPa | 13058 kPa | 13089 kPa
1034.9 ± 1.2 kg/m3: 13230 kPa | 13460 kPa | 13493 kPa | 13521 kPa | 13551 kPa | 13615 kPa | 13643 kPa
1035.3 ± 1.2 kg/m3: 14051 kPa | 14148 kPa | 14186 kPa | 14248 kPa | 14317 kPa
1033.4 ± 1.2 kg/m3: 11059 kPa
1034.7 ± 1.2 kg/m3: 13115 kPa | 13203 kPa | 13257 kPa
1033.9 ± 1.2 kg/m3: 11623 kPa | 11782 kPa | 11867 kPa | 11906 kPa
1036.5 ± 1.2 kg/m3: 16291 kPa | 16376 kPa | 16421 kPa | 16559 kPa
1034.8 ± 1.2 kg/m3: 13285 kPa | 13317 kPa | 13344 kPa | 13377 kPa | 13404 kPa | 13432 kPa
1036.1 ± 1.2 kg/m3: 15414 kPa | 15609 kPa | 15732 kPa | 15772 kPa | 15819 kPa | 15859 kPa
1035.8 ± 1.2 kg/m3: 14954 kPa | 15137 kPa | 15180 kPa | 15216 kPa | 15333 kPa
1033.5 ± 1.2 kg/m3: 11099 kPa | 11173 kPa | 11241 kPa
1035.4 ± 1.2 kg/m3: 14216 kPa | 14279 kPa | 14348 kPa | 14380 kPa | 14451 kPa | 14490 kPa | 14555 kPa | 14628 kPa
1036.7 ± 1.2 kg/m3: 16699 kPa | 16798 kPa | 16844 kPa | 16900 kPa | 17000 kPa
1035.5 ± 1.2 kg/m3: 14419 kPa | 14522 kPa | 14588 kPa | 14660 kPa | 14989 kPa
1035.7 ± 1.2 kg/m3: 14768 kPa | 14877 kPa | 15024 kPa | 15101 kPa
1034.3 ± 1.2 kg/m3: 12211 kPa | 12474 kPa | 12549 kPa | 12775 kPa
1034 ± 1.2 kg/m3: 11706 kPa | 11828 kPa | 12032 kPa | 12295 kPa
1033.7 ± 1.2 kg/m3: 11207 kPa | 11283 kPa | 11389 kPa | 11432 kPa | 11468 kPa | 11586 kPa
1036.2 ± 1.2 kg/m3: 15694 kPa | 15899 kPa | 15938 kPa | 15986 kPa
1035.2 ± 1.2 kg/m3: 13954 kPa | 13984 kPa | 14082 kPa | 14118 kPa
1035.1 ± 1.2 kg/m3: 13672 kPa | 13764 kPa | 13829 kPa | 13858 kPa | 13893 kPa | 13923 kPa | 14021 kPa
1036 ± 1.2 kg/m3: 15295 kPa | 15369 kPa | 15451 kPa | 15488 kPa | 15525 kPa | 15571 kPa | 15648 kPa
1034.2 ± 1.2 kg/m3: 12348 kPa | 12392 kPa | 12436 kPa
1036.9 ± 1.2 kg/m3: 17050 kPa
1035 ± 1.2 kg/m3: 13580 kPa | 13701 kPa | 13736 kPa | 13794 kPa
1036.4 ± 1.2 kg/m3: 16026 kPa | 16199 kPa | 16241 kPa | 16333 kPa | 16611 kPa
1036.3 ± 1.2 kg/m3: 16067 kPa | 16116 kPa | 16157 kPa
1036.6 ± 1.2 kg/m3: 16472 kPa | 16515 kPa | 16655 kPa
1035.9 ± 1.2 kg/m3: 15252 kPa
1036.8 ± 1.2 kg/m3: 16753 kPa | 16949 kPa
1035.6 ± 1.2 kg/m3: 14694 kPa | 14735 kPa | 14808 kPa | 14842 kPa | 14912 kPa | 15066 kPa
1034.4 ± 1.2 kg/m3: 12515 kPa | 12589 kPa | 12624 kPa | 12739 kPa
1033.6 ± 1.2 kg/m3: 11132 kPa | 11318 kPa | 11354 kPa
1034.1 ± 1.2 kg/m3: 11992 kPa | 12080 kPa | 12120 kPa | 12161 kPa | 12253 kPa
1033.8 ± 1.2 kg/m3: 11505 kPa | 11549 kPa | 11661 kPa | 11743 kPa
